ChEMBL document CHEMBL5523716, “Discovery of novel EGFR-PROTACs capable of degradation of multiple EGFR-mutated proteins” (Eur J Med Chem, 2024)
Calls of active or inactive are those of the source. The calls are words filed in the database; no cut-off is given here.

Key:
[1] = Metabolic stability in mouse liver microsomes assessed as half-life at 1 uM incubated upto 60 mins in presence of NADPH by LC-MS/MS analysis; type: ADME, Microsome
NCI-H1975 = experiment: Antitumor activity against human NCI-H1975 cells xenografted in BALB/c mouse assessed as tumor growth inhibition at 10 mg/kg,ip once daily for 22 days relative to control; type: functional; details: NCI-H1975, 528 h, time 22 day, read-out: TGI
[2] = MRT (0 to t) in SPF ICR mouse at 5 mg/kg,ip measured upto 24 hrs by LC-MS/MS analysis; type: ADME, organism-based; details: in vivo
HCC827 [3] = experiment: Antitumor activity against human HCC827 cells xenografted in BALB/c mouse assessed as increase in EGFR degradation in tumor at 1.25 to 5 mg/kg,ip once daily for 28 days by Western blot analysis; type: functional, organism-based; details: dose 1.25-5 mg/kg, time 28.0 day
[4] = Metabolic stability in mouse liver microsomes assessed as intrinsic clearance at 1 uM incubated upto 60 mins in presence of NADPH by LC-MS/MS analysis; type: ADME, Microsome; details: read-out: CLH
[5] = AUC (0 to infinity) in SPF ICR mouse at 2 mg/kg,iv measured upto 24 hrs by LC-MS/MS analysis; type: ADME, organism-based; details: in vivo
[6] = Metabolic stability in rat liver microsomes assessed as elimination rate constant at 1 uM incubated upto 60 mins in presence of NADPH by LC-MS/MS analysis; type: ADME, Microsome
[7] = Antitumor activity against human H1975-TM cells xenografted in BALB/c mouse assessed as tumor growth inhibition at 5 mg/kg,ip once daily for 14 days relative to control; type: functional; details: 336 h, time 14 day, read-out: TGI
[8] = Metabolic stability in human liver microsomes assessed as elimination rate constant at 1 uM incubated upto 60 mins in presence of NADPH by LC-MS/MS analysis; type: ADME, Microsome
HCC827 [9] = experiment: Antiproliferative activity against human HCC827 cells harboring EGFR Del19 mutant assessed as inhibition of cell growth incubated for 48 to 72 hrs by CCK-8 assay; type: functional, cell-based
[10] = Tmax in SPF ICR mouse at 5 mg/kg,ip measured upto 24 hrs by LC-MS/MS analysis; type: ADME, organism-based; details: in vivo
[11] = system: von Hippel-Lindau disease tumor suppressor/Epidermal growth factor receptor (Homo sapiens), P00533+P40337 [L858R,T790M]; experiment: PROTAC activity at VHL/EGFR L858R/T790M mutant in human NCI-H1975 cells assessed as downregulation of EGFR phosphorylation incubated for 72 hrs by Western blot analysis; type: cell-based
[12] = Metabolic stability in monkey liver microsomes assessed as half-life at 1 uM incubated upto 60 mins in presence of NADPH by LC-MS/MS analysis; type: ADME, Macaca mulatta, Microsome; details: rhesus monkey
[13] = Metabolic stability in human liver microsomes assessed as intrinsic clearance at 1 uM incubated upto 60 mins in presence of NADPH by LC-MS/MS analysis; type: ADME, Microsome; details: read-out: CLH
[14] = Antitumor activity against human H1975-TM cells xenografted in BALB/c mouse assessed as tumor growth inhibition at 10 mg/kg,ip once daily for 14 days relative to control; type: functional; details: 336 h, time 14 day, read-out: TGI
[15] = system: von Hippel-Lindau disease tumor suppressor/Epidermal growth factor receptor (Homo sapiens), P00533+P40337 [L858R,T790M]; experiment: PROTAC activity at VHL/EGFR L858R/T790M mutant in human NCI-H1975 cells assessed as induction of EGFR degradation at 2 uM incubated for 8 hr by Western blot analysis; type: cell-based
[16] = Metabolic stability in mouse liver microsomes assessed as elimination rate constant at 1 uM incubated upto 60 mins in presence of NADPH by LC-MS/MS analysis; type: ADME, Microsome
HCC827 [17] = experiment: Antitumor activity against human HCC827 cells xenografted in BALB/c mouse assessed as tumor growth inhibition at 5 mg/kg,ip once daily for 28 days relative to control; type: functional; details: HCC827, 672 h, time 28 day, read-out: TGI

SMILES: CCN(CC)C/C=C/C(=O)Nc1cc2c(Nc3ccc(F)c(Cl)c3)ncnc2cc1OCc1cn(CCCCCCCC(=O)N[C@H](C(=O)N2C[C@H](O)C[C@H]2C(=O)N[C@H](C)c2ccc(-c3scnc3C)cc2)C(C)(C)C)nn1
- half-life at 1 µM [1]: 1.95 h
- inhibition in vivo at 10 mg/kg (NCI-H1975): 79%
- MRT last at 24 h [2]: 2.86 h
- Activity (HCC827 [3]): Active
- microsomal CLint at 1 µM [4]: 11.8 µL/min/mg
- AUC(0-inf) [5]: 2360 ng·h/mL
- k el at 1 h, 1 µM [6]: 6.67e-05 s⁻¹
- inhibition in vivo at 5 mg/kg [7]: 24%
- k el at 1 h, 1 µM [8]: 0.0007 s⁻¹
- IC50 (HCC827 [9]): 9 nM
- Tmax [10]: 2 h
- Activity [11]: Dose-Dependent Effect
- half-life at 1 µM [12]: 0.632 h
- microsomal CLint at 1 µM [13]: 84 µL/min/mg
- inhibition in vivo at 10 mg/kg [14]: 34%
- Activity [15]: 83%
- k el at 1 h, 1 µM [16]: 0.0001 s⁻¹
- inhibition in vivo at 5 mg/kg (HCC827 [17]): 88%
